One assay deals with A549. Nature of the assay: Antiproliferative activity against human A549 cells assessed as inhibition of cell growth incubated for 72 hrs by CCK-8 assay. Format: functional, cell-based. The settings on record: A549, 72 h. In general terms: Tetrazolium dyes change colour on reduction, which living cells bring about.
The next assay deals with NCI-H1299. Nature of the assay: Antiproliferative activity against human NCI-H1299 cells assessed as inhibition of cell growth incubated for 72 hrs by CCK-8 assay. In kind it is functional, cell-based. The settings on record: NCI-H1299, 72 h.
Assay [1] has as its system SW480. Nature of the assay: Antiproliferative activity against human SW480 cells assessed as inhibition of cell growth incubated for 72 hrs by CCK-8 assay. In kind it is functional, cell-based. To be noted: SW480, 72 h.
The next assay deals with SW1990. Nature of the assay: Antiproliferative activity against human SW1990 cells assessed as inhibition of cell growth incubated for 72 hrs by CCK-8 assay. Format: functional, cell-based. To be noted: SW1990, 72 h.
The test system of another assay is Staphylococcus aureus. Nature of the assay: Antibacterial activity against Staphylococcus aureus ATCC 25923 assessed as inhibition of bacterial growth incubated for 24 hrs by microtiter plate reader analysis. Format: functional.
The test system of assay [2] is Staphylococcus epidermidis. Nature of the assay: Antibacterial activity against Staphylococcus epidermidis ATCC 14990 assessed as inhibition of bacterial growth incubated for 24 hrs by microtiter plate reader analysis. Format: functional.
In another assay the test system is Pseudomonas aeruginosa. Nature of the assay: Antibacterial activity against Pseudomonas aeruginosa ATCC 47085 assessed as inhibition of bacterial growth incubated for 24 hrs by microtiter plate reader analysis. Format: functional.
Assay [3] concerns SW480. Nature of the assay: Inhibition of colony formation in human SW480 cells assessed as reduction in number of clonogenic cells at 0 to 2.5 uM incubated for 24 hrs followed by replacement with fresh medium and measured after 24 hrs by crystal violet staining based analysis. To be noted: dose 0-2.5 µM. Format: functional, cell-based.
Assay [4] has as its system SW480. Nature of the assay: Induction of apoptosis in human SW480 cells assessed as increase in annexin V/PI positive cells incubated for 24 hrs by annexin V-FITC/PI staining based flow cytometry analysis. In kind it is functional, cell-based. The settings on record: dose 0-2.5 µM. Background: In flow cytometry, cells or beads pass a laser one at a time.

The source of these data is ChEMBL document CHEMBL5252630, “18-Residue Peptaibols Produced by the Sponge-Derived Trichoderma sp. GXIMD 01001” (J Nat Prod, 2023).

Values after ≈ are worked out from the molar mass of the structure shown. Active and inactive are the calls of the source. The rule behind the calls is not given here.

One may read the IC50 as the concentration at which inhibition is half-maximal. A word on the MIC: it is the lowest concentration that inhibits growth of the organism.

Take `CC[C@@H](C)[C@H](NC(=O)[C@@](C)(CC)NC(=O)[C@H](CCC(N)=O)NC(=O)[C@@](C)(CC)NC(=O)[C@@](C)(CC)NC(=O)[C@H](C)NC(=O)[C@H](CO)NC(=O)C(C)(C)NC(C)=O)C(=O)NC(C)(C)C(=O)NCC(=O)N[C@@H](CC(C)C)C(=O)NC(C)(C)C(=O)N1CCC[C@H]1C(=O)N[C@@H](CC(C)C)C(=O)NC(C)(C)C(=O)NC(C)(C)C(=O)N[C@@H](CCC(N)=O)C(=O)N[C@H](CO)Cc1ccccc1`: the IC50 in the assay on A549 was determined as 2800 nM; with NCI-H1299, 2900 nM; in the assay on SW480 [1] it was 960 nM; with SW1990, 960 nM. The minimum inhibitory concentration (MIC) with Staphylococcus aureus was 45 µg/mL (≈ 24.7 µM); in assay [2] it was over 180 µg/mL; in the assay on Pseudomonas aeruginosa it was over 180 µg/mL.
As to `CC[C@@](C)(NC(=O)[C@H](C)NC(=O)[C@H](CO)NC(=O)C(C)(C)NC(C)=O)C(=O)N[C@](C)(CC)C(=O)N[C@@H](CCC(N)=O)C(=O)N[C@](C)(CC)C(=O)N[C@H](C(=O)NC(C)(C)C(=O)NCC(=O)N[C@@H](CC(C)C)C(=O)NC(C)(C)C(=O)N1CCC[C@H]1C(=O)N[C@@H](CC(C)C)C(=O)NC(C)(C)C(=O)NC(C)(C)C(=O)N[C@@H](CCC(N)=O)C(=O)N[C@H](CO)Cc1ccccc1)C(C)C`, the half-maximal inhibitory concentration (IC50) in the assay on A549 came to 2600 nM; in the assay on NCI-H1299 it was 3200 nM; in the assay with SW480 [1], 1100 nM; in the assay on SW1990 it was 1100 nM. Further, the MIC in the assay with Staphylococcus aureus is 23 µg/mL (≈ 12.7 µM); in [2], 90 µg/mL (≈ 49.7 µM); in the assay with Pseudomonas aeruginosa, over 180 µg/mL.
Consider `CC[C@@](C)(NC(=O)[C@H](C)NC(=O)[C@H](C)NC(=O)C(C)(C)NC(C)=O)C(=O)N[C@](C)(CC)C(=O)N[C@@H](CCC(N)=O)C(=O)NC(C)(C)C(=O)N[C@H](C(=O)NC(C)(C)C(=O)NCC(=O)N[C@@H](CC(C)C)C(=O)NC(C)(C)C(=O)N1CCC[C@H]1C(=O)N[C@@H](CC(C)C)C(=O)NC(C)(C)C(=O)NC(C)(C)C(=O)N[C@@H](CCC(N)=O)C(=O)N[C@H](CO)Cc1ccccc1)C(C)C`, for which the concentration for half-maximal inhibition (IC50) worked out at 1300 nM in the assay on A549, 1300 nM in the assay on NCI-H1299, 460 nM in the assay with SW480 [1] and 460 nM in the assay with SW1990. The minimum inhibitory concentration (MIC) in the assay with Staphylococcus aureus was 45 µg/mL (≈ 25.3 µM); in [2] it was over 180 µg/mL; in the assay on Pseudomonas aeruginosa it was over 180 µg/mL. Moreover, the inhibition result with SW480 [3] was “Active”. In the assay on SW480 [4], the result was Active.
For `CC[C@@](C)(NC(=O)C(C)(C)NC(=O)[C@H](C)NC(=O)[C@H](C)NC(=O)C(C)(C)NC(C)=O)C(=O)N[C@@H](CCC(N)=O)C(=O)NC(C)(C)C(=O)N[C@H](C(=O)NC(C)(C)C(=O)NCC(=O)N[C@@H](CC(C)C)C(=O)NC(C)(C)C(=O)N1CCC[C@H]1C(=O)N[C@@H](CC(C)C)C(=O)NC(C)(C)C(=O)NC(C)(C)C(=O)N[C@@H](CCC(N)=O)C(=O)N[C@H](CO)Cc1c[nH]c2ccccc12)C(C)C`, the IC50 in the assay on A549 turned out to be 2500 nM; with NCI-H1299, 3400 nM; in the assay on SW480 [1], 880 nM; in the assay with SW1990, 1300 nM. Also, the minimal inhibitory concentration (MIC) with Staphylococcus aureus is 23 µg/mL (≈ 12.7 µM); in assay [2], 90 µg/mL (≈ 49.9 µM); in the assay with Pseudomonas aeruginosa, over 180 µg/mL.
In the case of `CC[C@@](C)(NC(=O)[C@H](CCC(N)=O)NC(=O)[C@@](C)(CC)NC(=O)C(C)(C)NC(=O)[C@H](C)NC(=O)[C@H](C)NC(=O)C(C)(C)NC(C)=O)C(=O)N[C@H](C(=O)NC(C)(C)C(=O)NCC(=O)N[C@@H](CC(C)C)C(=O)NC(C)(C)C(=O)N1CCC[C@H]1C(=O)N[C@@H](CC(C)C)C(=O)NC(C)(C)C(=O)NC(C)(C)C(=O)N[C@@H](CCC(N)=O)C(=O)N[C@H](CO)Cc1ccccc1)C(C)C`, the IC50 was found to be 2800 nM in the assay on A549, 4000 nM in the assay on NCI-H1299, 1200 nM in the assay with SW480 [1] and 1200 nM with SW1990. Also, the MIC was 23 µg/mL (≈ 12.9 µM) with Staphylococcus aureus, 90 µg/mL (≈ 50.6 µM) in [2] and over 180 µg/mL with Pseudomonas aeruginosa.
As to `CC[C@@](C)(NC(=O)C(C)(C)NC(=O)[C@H](C)NC(=O)[C@H](C)NC(=O)C(C)(C)NC(C)=O)C(=O)N[C@@H](CCC(N)=O)C(=O)NC(C)(C)C(=O)N[C@H](C(=O)NC(C)(C)C(=O)NCC(=O)N[C@@H](CC(C)C)C(=O)NC(C)(C)C(=O)N1CCC[C@H]1C(=O)N[C@@H](CC(C)C)C(=O)NC(C)(C)C(=O)NC(C)(C)C(=O)N[C@@H](CCC(N)=O)C(=O)N[C@H](CO)Cc1ccccc1)C(C)C`, the 50% inhibitory concentration (IC50) with A549 is 2700 nM; with NCI-H1299, 4700 nM; in the assay on SW480 [1] it was 900 nM; in the assay on SW1990 it was 900 nM. In addition, the MIC in the assay with Staphylococcus aureus is 45 µg/mL (≈ 25.5 µM); in assay [2] it was over 180 µg/mL; in the assay on Pseudomonas aeruginosa it was over 180 µg/mL.
On to `O=C(N[C@H](CO)[C@H](O)c1ccc([N+](=O)[O-])cc1)C(Cl)Cl` [CHLORAMPHENICOL], for which the MIC with Staphylococcus aureus was 3.1 µg/mL (≈ 9.59 µM); in assay [2] it was 1.6 µg/mL (≈ 4.95 µM); in the assay on Pseudomonas aeruginosa, over 180 µg/mL.
As to `CC[C@@](C)(NC(=O)[C@H](C)NC(=O)[C@H](C)NC(=O)C(C)(C)NC(C)=O)C(=O)N[C@](C)(CC)C(=O)N[C@@H](CCC(N)=O)C(=O)N[C@](C)(CC)C(=O)N[C@H](C(=O)NC(C)(C)C(=O)NCC(=O)N[C@@H](CC(C)C)C(=O)NC(C)(C)C(=O)N1CCC[C@H]1C(=O)N[C@@H](CC(C)C)C(=O)NC(C)(C)C(=O)NC(C)(C)C(=O)N[C@@H](CCC(N)=O)C(=O)N[C@H](CO)Cc1ccccc1)C(C)C`, the IC50 in the assay with A549 amounted to 2700 nM; in the assay on NCI-H1299 it was 3000 nM; in the assay with SW480 [1], 1500 nM; in the assay with SW1990, 1500 nM. For the same compound, the minimum inhibitory concentration (MIC) is 23 µg/mL (≈ 12.8 µM) in the assay on Staphylococcus aureus, over 180 µg/mL in [2] and over 180 µg/mL in the assay with Pseudomonas aeruginosa.
